Experiment: mn = molality of the nth substance listed, in mol/kg
Conditions: Liquid

[Cl-].[Na+] [sodium chloride] + O
Conditions | mass density [kg/m3]
332.77 K, 16012 kPa, m1 = 1 | 1028.34
332.83 K, 10001 kPa, m1 = 1 | 1025.96
332.88 K, 12003 kPa, m1 = 1 | 1026.78
332.96 K, 18010 kPa, m1 = 1 | 1029.12
333.11 K, 14007 kPa, m1 = 1 | 1027.52
333.13 K, 10014 kPa, m1 = 2 | 1060.45
333.13 K, 12007 kPa, m1 = 3 | 1090.92
333.13 K, 14002 kPa, m1 = 3 | 1091.64
333.16 K, 18002 kPa, m1 = 3 | 1093.07
333.17 K, 15999 kPa, m1 = 2 | 1062.63
333.18 K, 18011 kPa, m1 = 2 | 1063.39
333.19 K, 10002 kPa, m1 = 3 | 1089.97
333.19 K, 12008 kPa, m1 = 2 | 1061.17
333.2 K, 14003 kPa, m1 = 2 | 1061.9
333.21 K, 16006 kPa, m1 = 3 | 1092.36
333.52 K, 15999 kPa, m1 = 4 | 1123.12
333.54 K, 12004 kPa, m1 = 4 | 1121.22
333.55 K, 18008 kPa, m1 = 4 | 1124.3
333.56 K, 14008 kPa, m1 = 4 | 1122.36
333.59 K, 10007 kPa, m1 = 4 | 1120.38
352.11 K, 10000 kPa, m1 = 4 | 1109.5
352.14 K, 18001 kPa, m1 = 4 | 1112.67
352.16 K, 12008 kPa, m1 = 4 | 1109.8
352.17 K, 14050 kPa, m1 = 4 | 1111.1
352.19 K, 16005 kPa, m1 = 4 | 1111.53
352.65 K, 12002 kPa, m1 = 1 | 1015.47
353.13 K, 18026 kPa, m1 = 2 | 1052.55
353.14 K, 12005 kPa, m1 = 2 | 1050.19
353.16 K, 14002 kPa, m1 = 3 | 1079.82
353.16 K, 14003 kPa, m1 = 2 | 1050.95
353.19 K, 16007 kPa, m1 = 2 | 1051.71
353.2 K, 9995 kPa, m1 = 1 | 1014.63
353.2 K, 13999 kPa, m1 = 1 | 1016.06
353.23 K, 9996 kPa, m1 = 2 | 1049.38
353.23 K, 10007 kPa, m1 = 3 | 1078.28
353.23 K, 16008 kPa, m1 = 3 | 1080.53
353.27 K, 12003 kPa, m1 = 3 | 1079.02
353.28 K, 17998 kPa, m1 = 1 | 1017.65
353.28 K, 18002 kPa, m1 = 3 | 1081.24
372.7 K, 18017 kPa, m1 = 4 | 1100.7
372.71 K, 14005 kPa, m1 = 4 | 1099
372.72 K, 10019 kPa, m1 = 4 | 1097.2
372.75 K, 16043 kPa, m1 = 4 | 1100.12
372.76 K, 12007 kPa, m1 = 4 | 1098.5
372.96 K, 16007 kPa, m1 = 1 | 1003.93
373 K, 18001 kPa, m1 = 1 | 1004.74
373.03 K, 12005 kPa, m1 = 1 | 1002.25
373.03 K, 14001 kPa, m1 = 1 | 1003.21
373.1 K, 11999 kPa, m1 = 2 | 1038.08
373.11 K, 10005 kPa, m1 = 3 | 1066.26
373.11 K, 17997 kPa, m1 = 3 | 1069.36
373.16 K, 10001 kPa, m1 = 1 | 1001.31
373.16 K, 14004 kPa, m1 = 3 | 1067.77
373.17 K, 12008 kPa, m1 = 3 | 1067.01
373.2 K, 14002 kPa, m1 = 2 | 1038.84
373.22 K, 16005 kPa, m1 = 3 | 1068.52
392.6 K, 10002 kPa, m1 = 1 | 986.9
392.65 K, 12008 kPa, m1 = 1 | 987.5
392.65 K, 14005 kPa, m1 = 1 | 988.82
392.65 K, 16001 kPa, m1 = 1 | 989.54
392.65 K, 18001 kPa, m1 = 1 | 990.45
392.77 K, 14002 kPa, m1 = 4 | 1088.52
392.78 K, 15999 kPa, m1 = 4 | 1089.3
392.79 K, 10006 kPa, m1 = 4 | 1086.96
392.81 K, 12002 kPa, m1 = 4 | 1087.71
392.82 K, 18008 kPa, m1 = 4 | 1090.43
393.09 K, 14006 kPa, m1 = 3 | 1054.75
393.17 K, 10001 kPa, m1 = 3 | 1053.22
393.17 K, 16002 kPa, m1 = 3 | 1055.54
393.17 K, 18005 kPa, m1 = 2 | 1027.22
393.18 K, 10003 kPa, m1 = 2 | 1023.83
393.2 K, 11995 kPa, m1 = 2 | 1024.64
393.22 K, 13999 kPa, m1 = 2 | 1025.54
393.23 K, 16003 kPa, m1 = 2 | 1026.34
393.24 K, 12008 kPa, m1 = 3 | 1053.85
393.26 K, 17997 kPa, m1 = 3 | 1056.25
412.86 K, 10007 kPa, m1 = 4 | 1072.35
412.92 K, 12005 kPa, m1 = 4 | 1073.15
412.94 K, 14004 kPa, m1 = 4 | 1073.97
413.01 K, 16003 kPa, m1 = 4 | 1074.76
413.06 K, 18002 kPa, m1 = 4 | 1075.53
413.11 K, 17998 kPa, m1 = 2 | 1012.96
413.12 K, 14007 kPa, m1 = 2 | 1011.33
413.12 K, 16004 kPa, m1 = 1 | 973.21
413.14 K, 10008 kPa, m1 = 2 | 1009.53
413.14 K, 16003 kPa, m1 = 2 | 1012.21
413.14 K, 18004 kPa, m1 = 3 | 1041.53
413.15 K, 18001 kPa, m1 = 1 | 974.15
413.16 K, 10006 kPa, m1 = 1 | 970.45
413.17 K, 12009 kPa, m1 = 1 | 971.23
413.17 K, 16001 kPa, m1 = 3 | 1040.63
413.18 K, 12003 kPa, m1 = 2 | 1010.61
413.18 K, 13998 kPa, m1 = 1 | 972.24
413.2 K, 12005 kPa, m1 = 3 | 1038.72
413.23 K, 10007 kPa, m1 = 3 | 1038.23

From the NIST ThermoML archive (doi:10.1021/je400459y)
